Values joined by “and” are separate entries in the source; they are usually repeats but may differ in a detail not shown here. Identical values can stand only once.
Experiments:
[1] = cn = amount concentration of the nth substance listed, in mol/dm3; details: Drop volume
[2] = for surface tension liquid-gas: Drop volume; for mass density / speed of sound: 101.3 kPa, Liquid; for mass density: Vibrating tube method; for speed of sound: Frequency=3 MHz, Single path-length method

CCCCCCCCCCCCO[C@@H]1O[C@H](CO)[C@@H](O)[C@H](O)[C@H]1O [dodecyl beta.-D-glucopyranoside] + O
surface tension liquid-gas [mN/m], [1]
Details | 310.15 K | 323.15 K
c1 = 2.33e-05 | 52.97 | 52.98
c1 = 3.58e-05 | 46.13 | 46.38
c1 = 5.16e-05 | 41.28 | 41.5
c1 = 6.49e-05 | 38.47 | 38.5
c1 = 7.97e-05 | 35.61 | –
c1 = 9.31e-05 | 34.42 | 35.04
c1 = 0.000106 | 33.04 | 33.77
c1 = 0.000123 | 31.7 | 32.19
c1 = 0.000131 | 31.19 | 31.35
c1 = 0.000146 | 29.75 | 29.99
c1 = 0.000162 | 30.12 | 29.72
c1 = 0.000169 | 29.25 | 28.68
c1 = 0.000177 | 29.51 | 28.83
c1 = 0.000187 | 29.14 | 28.4
c1 = 0.000198 | 29.09 | 28
c1 = 0.00021 | 29.52 | 28.11
c1 = 0.000216 | 29.36 | 28.07
c1 = 0.000227 | 29.03 | 28.56
c1 = 0.000241 | 29.02 | 28.29
c1 = 0.000258 | 29.1 | 27.87

O [water]
[2]
Details | mass density [kg/m3] | speed of sound [m/s] | surface tension liquid-gas
283.15 K | 999.707 | – | 73.92 mN/m
285.65 K | 999.444 | 1457.3 | –
290.65 K | 998.689 | 1474.7 | –
295.65 K | 997.658 | 1490 | –
298.15 K | – | – | 71.77 mN/m
300.65 K | 996.376 | 1503.3 | –
305.65 K | 994.867 | 1514.9 | –
310.15 K | – | – | 70.13 mN/m and 69.93 mN/m
310.65 K | 993.147 | 1524.7 | –
313.15 K | – | 1529 | –
315.65 K | 991.235 | 1533 | –
318.15 K | – | 1536.6 | –
320.65 K | 989.14 | 1539.8 | –
323.15 K | 988.029 | – | 68.15 mN/m and 67.79 mN/m

O [water] + CCCCCCCCCCCCO[C@@H]1O[C@H](CO)[C@@H](O)[C@H](O)[C@H]1O
[1], c2 = 0
Details | surface tension liquid-gas [mN/m]
310.15 K | 69.93
323.15 K | 67.79

— the NIST ThermoML archive (doi:10.1016/j.fluid.2018.08.011)
